The values that follow come from patent US20080015138A1, “Metal binding compounds, metal binding compositions, and their uses” (AFFINERGY, INC., priority 2006, published 2008).

Square brackets hold non-standard residues; d marks the D form. Ends that are not written are not given here.

Experiment [1] can be described thus: Peptide binding assay on titanium beads (streptavidin-AP detection, binding curve EC50). On the procedure:
(§1) Relative binding strengths (affinities) of the peptides to metal, also used as a measure of binding specificity, were determined by testing serial dilutions of the peptide for binding to a target substrate comprising metal, as represented by titanium or steel. Plotting the absorbance observed across the concentration range for each peptide sequence yielded a binding curve of the peptides to its target substrate from which can be determined an EC50 (e.g., the concentration of peptide that gives 50% of the maximum signal in the binding curve is used as an estimate of the affinity of the peptide for the target). Preferred are peptides that bind to the selected target substrate (in this case, metal) with binding specificity, preferably with an EC50 of less than or equal to about 1 μM, and more preferably, in the nanomolar range (e.g., <0.1 μM). […] A typical binding assay for titanium (note, a different substrate may be substituted for titanium in the assay) may be perofrmed according to the following procedure.
(§2) Briefly, 5/32-inch diameter Grade 200 titanium beads were washed by sonication in acetone for 15 minutes, and the beads were allowed to dry. One bead was added to each well of a 96-well polypropylene plate. Two hundred fifty (250) μL of 1% BSA in PBS was added to each well of the plate. The surface of the wells was blocked by incubation for 1 hour at 20° C. with shaking at 500 rpm. The plate was washed three times with 250 μL of buffer-T per well. A 1:3 dilution series of each of the peptides was prepared using PBS as a diluent, starting at a peptide concentration of 20 μM, and going down to 0.0001 μM. A 200 μL sample of each dilution was added to wells of the plate. The plate was incubated for 1 hour at 20° C. with shaking at 500 rpm. The beads were washed three times with 250 μL of buffer-T per well. Two hundred (200) μL of streptavidin-alkaline phosphatase (“streptavidin AP”) reagent, at a dilution of 1:2000 in buffer+1% BSA, was added to each well. The plate was incubated for 30 minutes at room temperature. The beads were washed three times with 250 μL of buffer-T per well. Two hundred (200) μL of color development reagent (PNPP, p-nitrophenol phosphate) was added to each well. After color had developed (10 minutes), the samples were transferred to a clear 96-well plate and the absorbance at 405 nm determined. A binding curve was generated by plotting the absorbance at 405 nm against the peptide concentration (μM).

Experiment [2] can be described thus: Peptide binding assay on stainless steel. The conditions noted are these: for binding to stainless steel (in words): biotinylated peptides. On the procedure: as §1, §2
(§3) In this embodiment, illustrated are additional characterizations of the binding specificities of examples of metal binding domains, and peptides containing the metal binding domains, according to the present invention to various substrates, such as metal (as illustrated by stainless steel, zirconium metal alloy […]) versus binding to a polymer (as illustrated by polystyrene). Using the methods illustrated in Example 2, binding specificities for the various substrates were determined; with the results illustrated in Table 6 (Note: “none” means any binding detected was very low, and not above background binding (such as by a control peptide with no binding specificity for metal) in the binding assay; and thus, a binding curve for calculation of an EC50 could not be generated).

Experiment [3] is described as follows: Peptide binding assay on polymer (polystyrene). To be noted: Table 6, polymer illustrated by polystyrene. On the procedure:
as §1, §2, §3

Experiment [4] is described as follows: Peptide binding assay on zirconium metal alloy. The conditions noted are these: Table 6. On the procedure: as §1, §2, §3
A short description of experiment [5]: Peptide binding assay on glass. To be noted: Table 6. How it is done: as §1, §2, §3
Setting [6] is: Table 4, second-generation peptides, biotinylated at C-terminal lysine, binding to titanium, read-out: EC50.
The mark [7] stands for this setting: Table 5, spacing between triplets, biotinylated peptides, binding to titanium, read-out: EC50.
Setting [8] is: Table 3, substituted peptides labeled with biotin, binding to titanium, read-out: EC50.
Setting [9] is: Table 6, read-out: EC50 (μM) stainless steel.

SHKHGGGGHKHGSSGK [SEQ ID NO: 76]: the EC50 – broadly, the concentration giving half of the maximal effect – in experiment [1] (setting [6]) is 150 nM.
With SKHKGKHKGSSGK [SEQ ID NO: 82], the half-maximal effective concentration (EC50) in experiment [1] (setting [7]) is 60 nM.
Still for that read-out and setting: with SKHKKHKGSSGK [SEQ ID NO: 81] the figure was 60 nM.
As to “ssCDQNDIFYTSKKSHKSHCsr ([code s][code s]CDQNDIFYTSKKSHKSHC[code s][code r]; not fully specified; printed as ssCDQNDIFYTSKKSHKSHCsr; cysteine pairing not given here) [SEQ ID NO: 49]”, the “binding to stainless steel (in words)” value in experiment [2] is recorded as “showed binding”. Moreover, the “binding to titanium (in words)” value in experiment [1] (biotinylated peptides) was “showed binding”.
As for “ssCSHNHHKLTAKHQVAHKCsr ([code s][code s]CSHNHHKLTAKHQVAHKC[code s][code r]; not fully specified; printed as ssCSHNHHKLTAKHQVAHKCsr; cysteine pairing not given here) [SEQ ID NO: 48]”, the “binding to stainless steel (in words)” value in experiment [2] is “showed binding”. In addition, the “binding to titanium (in words)” value in experiment [1] (biotinylated peptides) is “showed binding”.
For the substance SHKHPVTPRFFVVGSK [SEQ ID NO: 68], in experiment [1] (setting [8]), the EC50 was determined as 600 nM.
Turning to SHKHGGGGRFFVVESK [SEQ ID NO: 61], the EC50 in experiment [1] (setting [8]) was determined as 3000 nM.
On the same count and under the same terms, then “SHKHPVTPRFFVVESK [SEQ ID NO: 59, Parent]”, with 4000 nM.
Regarding SHKHPVTPRFFVVVSK [SEQ ID NO: 67], the EC50 in experiment [1] (setting [8]) was 200 nM.
As to SKKHGGKKHGSSGK [SEQ ID NO: 70], the EC50 in experiment [2] (setting [9]) was under 0.1 µM; in experiment [3], over 20 µM; in experiment [4], under 0.1 µM; in experiment [5], under 0.1 µM; in experiment [1] (setting [6]) it was 13 nM.
Consider SKHKGGGGGKHKGSSGK [SEQ ID NO: 84], for which the EC50 in experiment [1] (setting [7]) stood at 70 nM.
For the substance SKHKGGKHKGSSGK [SEQ ID NO: 71], the EC50 in experiment [2] (setting [9]) was under 0.5 µM; in experiment [3], over 20 µM; in experiment [4], under 0.1 µM; in experiment [5], under 0.5 µM; in experiment [1] (setting [6]), 26 nM; in experiment [1] (setting [7]), 26 nM.
SKHKGGHKHGSSGK [SEQ ID NO: 73]: the EC50 in experiment [2] (setting [9]) was under 0.5 µM; in experiment [3] it was over 20 µM; in experiment [4] it was under 0.5 µM; in experiment [5], under 0.5 µM; in experiment [1] (setting [6]) it was 45 nM.
Consider “ssSDKCHKHWYCYESKYGGSsr ([code s][code s]SDKCHKHWYCYESKYGGS[code s][code r]; cysteine pairing not given here; also: biotinylated (site not given here)) [SEQ ID NO: 51]”, for which the “binding to stainless steel (in words)” value in experiment [2] is reported as “showed binding”. Moreover, the “binding to titanium (in words)” value in experiment [1] (biotinylated peptides) was “showed binding”.
As to SGGGPVTPRFFVVESK [SEQ ID NO: 64], the EC50 in experiment [1] (setting [8]) was over 100000 nM.
As to SHGHGGHGHGSSGK [SEQ ID NO: 80], the half-maximal effective concentration (EC50) in experiment [1] (setting [6]) was found to be 4000 nM. Also, in experiment [1] (biotinylated peptides), the “binding to titanium (in words)” value is given as “comparably poorer binding affinity”.
As to “ssCNCYVTPNLLKHKCYKICsr ([code s][code s]CNCYVTPNLLKHKCYKIC[code s][code r]; not fully specified; printed as ssCNCYVTPNLLKHKCYKICsr; cysteine pairing not given here) [SEQ ID NO: 47]”, the “binding to stainless steel (in words)” value is on record as “showed binding” in experiment [2] (listed as 47) and “strongest binding” in experiment [2] (listed as SEQ ID NO:47). Moreover, the EC50 in experiment [2] (biotinylated phage-derived peptide, text of Example 2, read-out: EC50 on stainless steel) is about 1 µM; in experiment [1] (biotinylated phage-derived peptide, text of Example 2, read-out: EC50 on titanium), about 800 nM. Besides, the “binding to titanium (in words)” value in experiment [1] (biotinylated peptides, listed as 47) is reported as “showed binding”; in experiment [1] (biotinylated peptides, listed as SEQ ID NO:47), “strongest binding”.
As for SHKHPVTPRGGGGESK [SEQ ID NO: 62], in experiment [1] (setting [8]), the EC50 was 3000 nM.
With “SHHKGGHHKGSSGK- (not fully specified; printed as SHHKGGHHKGSSGK-; also: name ends with '-': unspecified C-terminal conjugate) [SEQ ID NO: 78]”, the EC50 in experiment [1] (setting [6]) came out at 500 nM.
For SHKHPVTPRFFVVKSK [SEQ ID NO: 66], in experiment [1] (setting [8]), the EC50 was determined as 50 nM.
Same read-out and setting: with SHKHPVTPRGGVVESK [SEQ ID NO: 60] the figure was 2000 nM.
With SHKHGGKHKGSSGK [SEQ ID NO: 74], the EC50 was under 0.5 µM in experiment [2] (setting [9]); over 20 µM in experiment [3]; under 0.1 µM in experiment [4]; under 0.5 µM in experiment [5]; 60 nM in experiment [1] (setting [6]).
Turning to SHKHPVTPRFFVVNSK [SEQ ID NO: 69], the EC50 in experiment [1] (setting [8]) is 800 nM.
Turning to SHKHGGHKHGGHKHGSSGK [SEQ ID NO: 72], the EC50 is under 0.1 µM in experiment [2] (setting [9]), under 0.1 µM in experiment [4], under 0.05 µM in experiment [5] and 35 nM in experiment [1] (setting [6]). Moreover, the “EC50 (μM) Polymer” value in experiment [3] is “None”.
As to SKHKGGGGKHKGSSGK [SEQ ID NO: 75], the concentration for a half-maximal effect (EC50) in experiment [2] (setting [9]) is under 0.5 µM; in experiment [3], over 20 µM; in experiment [4] it was under 0.1 µM; in experiment [5] it was under 0.1 µM; in experiment [1] (setting [6]), 110 nM.
On to SKHKGGKHKGGKHKGSSGK [SEQ ID NO: 79], for which the EC50 in experiment [2] (setting [9]) was under 0.05 µM; in experiment [3], over 20 µM; in experiment [4], under 0.05 µM; in experiment [5] it was under 0.05 µM; in experiment [1] (setting [6]) it was 25 nM; in experiment [1] (Table 7, peptide monomer versus branched polymers, binding to titanium, read-out: EC50) it was 25 nM.
Regarding SHKHPVTPGFFVVESK [SEQ ID NO: 63], in experiment [1] (setting [8]), the EC50 is over 50000 nM.
Regarding SHKHPVTPRFFVVYSK [SEQ ID NO: 65], the half-maximal effective concentration (EC50) in experiment [1] (setting [8]) turned out to be 50 nM.
For SHKHGGHKHGSSGK [SEQ ID NO: 77], the EC50 in experiment [2] (setting [9]) is under 1 µM; in experiment [3] it was over 20 µM; in experiment [4] it was under 1 µM; in experiment [5], under 1 µM; in experiment [1] (setting [6]), 200 nM.
On to SKHKGGGKHKGSSGK [SEQ ID NO: 83], for which the EC50 in experiment [1] (setting [7]) was 75 nM.
